US11376231B2, “Compositions of bioactive fulvate fractions and uses thereof” (OMNI BIOCEUTICAL INNOVATIONS, INC., priority 2016, dated 2022)
Like-named read-outs stand apart in the source and are kept apart here. Ends that are not written are not given here.

Experiments:
chronic wounds = tested on: chronic wounds; set-up: key: N.S. = not statistically significant; settings: cited from earlier work
skin wounds = experiment: Screen of tigerinin-based peptides for wound-healing ability
Excerpt: Two antimicrobial peptides (tigerinin-RC1: […] (SEQ ID NO: 9); tigerinin-RC2: […] (SEQ ID NO: 10)) have been previously identified from the skin secretions of Fejervarya cancrivora. […] Here, several peptides based on tigerinins are synthesized to screen candidates containing potential wound-healing ability.

human keratinocytes = experiment: Stimulation of keratinocytes: expression of antimicrobial peptides/polypeptides (Northern blot, ELISA, immunoblot, immunostaining); type: cell-based; settings: for expression of the antimicrobial peptides/polypeptides hCAP-18, hBD-3, NGAL, and SLPI: human keratinocytes; for mRNA for hBD-3 (induction): not detected in unstimulated cells
Method: SDS-PAGE and immunoblotting were performed with Bio-Rad systems according to instructions given by the manufacturer (Bio-Rad, Hercules, Calif.). For immunoblotting, after the transfer of proteins from the 14% polyacrylamide gels, the polyvinylidene difluoride (PVDF) membranes (Millipore, Bedford, Mass.) were blocked for 1 h with 5% skimmed milk in PBS. For detection of hCAP-18, NGAL, and SLPI, the PVDF membranes were incubated overnight with primary antibodies. The following day, the membranes were washed and incubated for 2 h with alkaline phosphatase-conjugated secondary antibodies (DAKO, Glostrup, Denmark) then washed and visualized by 5'-bromo-chloro-indolyl phosphate (Sigma-Aldrich) and nitro blue tetrazolium (Sigma-Aldrich). Medium from keratinocytes was extracted with MacroPrep CM Support beads (Bio-Rad) overnight at 4° C. The beads were subsequently washed and bound material was eluted with 30% acetic acid. The eluted material was dialyzed in 5% acetic acid and lyophilized before resuspension in sample buffer for acid urea (AU)-PAGE. AU-PAGE and immunoblotting were performed according to instructions given by the manufacturer (Hoeffer, San Francisco, Calif.). After transfer of proteins from the 12.5% acrylamide gels, the PVDF membranes were fixed for 30 min in TBS with 0.05% glutaraldehyde (Sigma-Aldrich), followed by blocking with Superblock Blocking Buffer (Pierce, Rockford, Ill.). For visualization of hBD-3, the PVDF membranes were incubated overnight with primary antibodies. The following day, the membranes were incubated for 2 h with HRP-conjugated secondary antibodies, (Pierce) and visualized by Immun-Star HRP luminal/enhancer and Immun-Star peroxide buffer (Bio-Rad). Cells were grown in serum-free keratinocyte medium from Clonetics (KGM-2 Bullet Kit; San Diego, Calif.) with bovine pituitary extract, transferrin, human epidermal growth factor (EGF), hydrocortisone, gentamicin, amphotericin B, and epinephrine, but without insulin. Cells were stimulated beginning 24 h after complete confluence was reached. Cells and medium was harvested 0, 3, 6, 12, 24, and 48 h after stimulation with IGF-I (100 ng/mL), TGF-α (50 ng/mL), TGF-β1 (10 ng/mL), hFGF (100 ng/mL), IGF-I/TGF-α, IL-1β (20 ng/mL), IL-6 (100 ng/mL), EGF (100 ng/mL), and INF-α (20 ng/mL). […] The RNA was transferred to a Hybond-N membrane (Amersham Pharmacia Biotech, Little Chalfont, U.K.) by capillary blotting and was fixed by UV irradiation. The filters were pre-hybridized for a minimum of 30 min at 42° C. in 10 mL of ULTRAhyb (Ambion, Austin, Tex.) and hybridized overnight at 42° C. after the addition of an additional 5 mL of ULTRAhyb containing the P-labeled probe. The membranes were washed twice for 5 min each time at 42° C. in 2×SSC (1×SSC=150 mM NaCl/15 mM sodium citrate, pH 7.0)/0.1% SDS, followed by twice for 15 min each time in 2×SSC/0.1% SDS, once for 15 min in 0.2×SSC/0.1% SDS, and once for 15 min in 0.1×SSC/0.1% SDS at 42° C. The blot was developed and quantified by a phosphorimager (Fuji Imager Analyzer BAS-2500, Image Reader version 1.4E, image Gauge version 3.01 software; Fuji, Stockholm, Sweden). The sizes of the mRNAs were determined by reference to 18S and 285 rRNA, which were visualized by ethidium bromide staining. The membranes were stripped by boiling in 0.1% SDS before re-hybridization. The probes used for hybridization were cDNA fragments radiolabeled with [α-P]dCTP using the Random Primers DNA Labeling System (Life Technologies). The probes NGAL, hCAP-18, hBD-2, and β-actin have previously been described. The probes for SLPI, hBD-1, and hBD-3 were amplified from cDNA from keratinocytes with the following primers: SLPI, [NT] II) NO: 1), and [NT] ID NO: 2); hBD-1, [NT] ID NO: 3), and [NT] ID NO: 4); and hBD-3, [NT] ID NO: 5), and [NT] ID NO: 6). The probe for hBD-4 was amplified from genomic DNA using the following primers: [NT] ID NO: 7) and [NT] II) NO: 8). PCR-amplified probes were cloned into plasmids and verified by DNA sequencing. […]

CBA Epidermal Culture = experiment: Tissue repair in human epidermal cell culture with 4-mm defect (bFGF, M-007); type: cell-based
Method: A 4-mm mucosal defect was surgically made in the CBA Epidermal Culture. The formulation Sol. of bFGF, M-007, and control saline was injected along the edge of the wound defect immediately after scratch. The control group received only phosphate-buffered saline vehicle.
By day 5, FGFR1-positive cells were seen below the stratum corneum, even in the control group. […] Each sample was repeated in duplicate, thus FIG. 2 represents the average of each sample. P1-2 are control plates 1 and 2 and are epidermal cell culture with no external treatment. P3-4 is epidermal cell culture treated with phosphate buffered saline only. P5-6 is epidermal cell culture treated with bFGF. P7-8 is epidermal cell culture treated with bFGF sol. No. 00376. […] No. 00321A. […] No. 0032113. […] No. 00321A @ 70/30 ratio. […] No. 00321A @ 30/70 ratio. […] No. 00321A 70/30 ratio. P21-22 is epidermal cell culture treated with bFGF sol. […] No. 00321A @50/50 ratio. P23-24 is epidermal cell culture treated with bFGF sol. […] No. 00321A @30/70 ratio.

## HGH: human growth hormone
Chronic wounds; venous (37), 1 IU/cm^2 per week, Rasmussen et al.
  Results: N.S.

## EGF: epidermal growth factor (NSDSECPLSHDGYCLHDGVCMYIEALDKYACNCVVGYIGERCQYRDLKWWELR; UniProt P01133 971-1023, looked up)
Chronic wounds; venous (44), 10 μg/mL twice per day, Falanga et al.
  Results: N.S.

## c [WCKPKPKPRCH-NH2] (SEQ ID NO: 11) (not fully specified (bridges); also: cyclic, ring type and places not given here; listed as Fejervarya cancrivora) [M-007 fulvate isolated peptide, tigerinin-based synthesized small peptide]
Skin wounds
  wound-healing ability: potent healer of skin wounds

## IL-1B: interleukin-1B
Chronic wounds; pressure (25), 0.01, 0.1, and 1 μg/cm^2 daily, Robson et al.
  Results: N.S.

## IGF-I: insulin growth factor-1
Human keratinocytes; 24 h
  expression of hBD-1 relative to the housekeeping gene β-actin: 3 fold
Human keratinocytes; 48 h
  expression of hBD-1 relative to the housekeeping gene β-actin: 7 fold
Human keratinocytes
  expression of the antimicrobial peptides/polypeptides hCAP-18, hBD-3, NGAL, and SLPI: induce or enhance
Human keratinocytes; keratinocytes
  hCAP-18 at the protein level (ELISA) and the mRNA level: up-regulated
  mRNA for hBD-3 (induction): did not induce

## GM-CSF: granulocyte-macrophage colony-stimulating factor
Chronic wounds; venous + arterial (25), 400 μg injected once around the wound, da Costa et al.
  Results: N.S.

## TGF-α: a transforming growth factor
Human keratinocytes
  expression of the antimicrobial peptides/polypeptides hCAP-18, hBD-3, NGAL, and SLPI: induce or enhance
Human keratinocytes; keratinocytes
  mRNA for hBD-3 (induction): significantly induced
Human keratinocytes; medium from stimulated keratinocytes, not in unstimulated cells
  hBD-3 in the medium by immunoblot: detected

## bFGF: basic fibroblast growth factor
CBA Epidermal Culture
  collagen maturation (histologic analysis): relatively faster
  granular tissue formation and re-epithelialization: significantly accelerated
CBA Epidermal Culture; day 5
  number and intensity of FGFR1-positive cells versus control group: greater than in the control group
Chronic wounds; diabetic (17), 0.25 to 0.75 μg/cm^2 daily, Richard et al.
  Results: N.S.
Chronic wounds; pressure (50), 1, 5, and 10 μg/cm^2, Robson et al.
  Results: N.S.
